Measurements published in ChEMBL document CHEMBL5726441, “Isoindolone derivatives” (2017).

target: Bromodomain-containing protein 4 (Homo sapiens, UniProt O60885); assay: TR-FRET Assay: Compound dilution series were prepared in DMSO via a 3-fold serial dilution from 2.5 mM to 42 nM. Compounds were then diluted 6:100 in assay buffer (20 mM Sodium Phosphate, pH 6.0, 50 mM NaCl, 1 mM EDTA, 0.01% Triton X-100, 1 mM DTT) to yield 3× working solutions. Six microliters (μL) of the working solution was then transferred to white, low-volume assay plates (Costar #3673). A 1.5× assay mixture containing His-tagged bromodomain, Europium-conjugated anti-His antibody (Invitrogen PV5596) and the Alexa-647-conjugated probe molecule was also prepared. Twelve μL of this solution were added to the assay plate to reach a final volume of 18 μL. The final concentration of 1× assay buffer contains 2% DMSO, 50 μM−0.85 nM compound, 8 nM bromodomain, 1 nM antibody and 100 or 30 nM probe (for BDI or BDII, respectively). After a one-hour incubation at room temperature, TR-FRET ratios were determined using an Envision multilabel plate reader (Ex 340, Em 495/520).TR-FRET data were normalized to the means of 24 no-compound controls (high) and 8 controls containing 1 μM un-labeled probe (low). Percent inhibition was plotted as a function of compound concentration and the data were fit with the 4 parameter logistic equation to obtain IC50s Inhibition constants (Ki) were calculated from the IC50s, probe Kd and probe concentration. Typical Z′ values were between 0.65 and 0.75. The minimum significant ratio was determined to evaluate assay reproducibility (Eastwood et al., (2006) J Biomol Screen, 11: 253-261).

Row | Ki [µM] | Structure (SMILES)
1 | 6.22 | Cc1[nH]c(-c2ccccc2CN2C(=O)c3ccccc3C2=O)c2c1C(=O)CCC2
2 | 0.943 | Cc1[nH]c(-c2cccc3ccccc23)c2c1C(=O)CCC2
3 | 3.62 | Cc1[nH]c(-c2ccccc2Oc2ccccc2)c2c1C(=O)CC(CC(C)C)C2 (stereo not drawn)
